Assay results: patent publication US20090023731A1, “SOLUBLE EPOXIDE HYDROLASE INHIBITORS” (Arete Therapeutics, Inc., priority 2007, published 2009)

Legend:
[1] = tested on: soluble epoxide hydrolase (sEH); assay: Fluorescent assay for mouse and human soluble epoxide hydrolase (CMNPC substrate); format: biochemical
Description: Recombinant mouse sEH (MsEH) and human sEH (HsEH) were produced in a baculovirus expression system as previously reported. […] The expressed proteins were purified from cell lysate by affinity chromatography. […] Protein concentration was quantified using the Pierce BCA assay using bovine serum albumin as the calibrating standard.
The IC50s for each inhibitor were according to the following procedure:
Bis/Tris HCl 25 mM pH 7.0 containing 0.1 mg/mL of BSA (buffer A) CMNPC at 0.25 mM in DMSO.
Mother solution of enzyme in buffer A (Mouse sEH at 6 μg/mL and Human sEH at 5 μg/mL). Inhibitor dissolved in DMSO at the appropriate concentration.
In a black 96 well plate, fill all the wells with 150 μL of buffer A.
Add 2 μL of DMSO in well A2 and A3, and then add 2 μL of inhibitor solution in A1 and A4 through A12.
Add […] of buffer A in row A, then mix several time and transfer […] to row B. Repeat this operation up to row H. The […] removed from row H is discarded.
Add […] of buffer A in column 1 and 2, then add […] of enzyme solution to column 3 to 12.
Incubate the plate for 5 minutes in the plate reader at 30° C.
During incubation prepare the working solution of substrate by mixing 3.68 mL of buffer A (4×0.920 mL) with 266 μL (2×133 μL) of substrate solution).
The velocities are used to analyze and calculate the IC50s.

Row | melting point | % Inh ([1]; inhibitor conc. 50 nM) | Structure (SMILES) | further results
1 | 162 to 166 °C |  | O=C(Nc1ccc(Oc2ccc(C(=O)O)cc2)cc1)NC12CC3CC(CC(C3)C1)C2 [Compound 65, 4-(4-(3-(adamantyl)ureido)phenoxy)benzoic acid] | % Inh ([1]; inhibitor conc. 2000 nM): 100%
2 |  | 96% | O=C(Nc1cccc(OCCCN2CCOCC2)c1)NC1CCCCC1 [Compound 41, 1-Cyclohexyl-3-[3-(3-morpholin-4-yl-propoxy)-phenyl]-urea] | 
3 |  | 61% | O=C(CC1CCCCC1)Nc1cccc(OCCCN2CCOCC2)c1 [Compound 51, 2-Cyclohexyl-N-[3-(3-morpholin-4-yl-propoxy)-phenyl]-acetamide] | 
4 |  | 92% | O=C(Nc1ccc(F)c(OCCCN2CCOCC2)c1)NC12CC3CC(CC(C3)C1)C2 [Compound 53, 1-Adamantan-1-yl-3-[4-fluoro-3-(3-morpholin-4-yl-propoxy)-phenyl]-urea] | 
5 |  | 93% | O=C(CC12CC3CC(CC(C3)C1)C2)Nc1ccc(OCCCN2CCOCC2)cc1 [Compound 46, 2-Adamantan-1-yl-N-[4-(3-morpholin-4-yl-propoxy)-phenyl]-acetamide] | 
6 | 185 to 187 °C |  | O=C(Nc1ccc(Oc2cccc(C(=O)O)c2)cc1)NC12CC3CC(CC(C3)C1)C2 [Compound 59, 3-(4-(3-Adamantan-1-ylureido)phenoxy)benzoic acid] | % Inh ([1]; inhibitor conc. 5000 nM): 99%
7 |  | 87% | O=C(Nc1ccc(C(F)(F)F)cc1)Nc1ccc(F)c(OCCCN2CCOCC2)c1 [Compound 32, 1-[4-Fluoro-3-(3-morpholin-4-yl-propoxy)-phenyl]-3-(4-trifluoromethyl-phenyl)-urea] | 
8 |  | 82% | O=C(Nc1ccc(F)cc1)Nc1cccc(OCCCN2CCOCC2)c1 [Compound 2, 1-(4-Fluoro-phenyl)-3-[3-(3-morpholin-4-yl-propoxy)-phenyl]-urea] | 

Further lines, the molecule ahead of its results:

Row | Structure (SMILES) | melting point | % Inh ([1]; inhibitor conc. 50 nM) | further results
9 | O=C(Nc1ccc(Oc2ccc(C(=O)O)cc2)cc1)Nc1cccc(C(F)(F)F)c1 [Compound 67, 4-(4-(3-(3-(trifluoromethyl)phenyl)ureido)phenoxy)benzoic acid] | 318 °C |  | % Inh ([1]; inhibitor conc. 2000 nM): 99%
10 | O=C(Nc1cccc(OCc2ccccc2)c1)NC12CC3CC(CC(C3)C1)C2 [Compound 57, 1-Adamantan-1-yl-3-(3-benzyloxy-phenyl)-urea] | 232 to 235 °C | 98% | 
11 | O=C(Nc1ccc(Oc2ccccc2)cc1)Nc1ccc(C(F)(F)F)cc1 [Compound 39, 1-(4-Phenoxy-phenyl)-3-(4-trifluoromethyl-phenyl)-urea] | 211 to 213 °C | 90% | 
12 | O=C(Nc1cccc(OCCCN2CCOCC2)c1)Nc1cccc(C(F)(F)F)c1 [Compound 10, 1-[3-(3-Morpholin-4-yl-propoxy)-phenyl]-3-(3-trifluoromethyl-phenyl)-urea] |  | 74% | 
13 | O=C(Nc1cccc(Oc2ccc(C(=O)O)cc2)c1)NC12CC3CC(CC(C3)C1)C2 [Compound 68] | 152 to 154 °C |  | 
14 | O=C(Nc1ccc(C(F)(F)F)cc1)Nc1cccc(OCc2ccccc2)c1 [Compound 37, 1-(3-Benzyloxy-phenyl)-3-(4-trifluoromethyl-phenyl)-urea] | 208 to 210 °C | 99% | 
15 | O=C(Nc1cccc(OCCCN2CCOCC2)c1)Nc1c(Cl)cccc1Cl [Compound 3, 1-(2,6-Dichloro-phenyl)-3-[3-(3-morpholin-4-yl-propoxy)-phenyl]-urea] |  |  | % Inh ([1]; inhibitor conc. 50000 nM): 90%
16 | O=C(Nc1ccc(C(F)(F)F)cc1)Nc1cccc(Oc2cccc(C(=O)O)c2)c1 [Compound 71, 3-(3-(3-(4-(trifluoromethyl)phenyl)ureido)phenoxy)benzoicacid] |  |  | % Inh ([1]; inhibitor conc. 2000 nM): 98%
17 | O=C(Nc1ccc(C(F)(F)F)cc1)Nc1cccc(Oc2ccccc2)c1 [Compound 40, 1-(3-Phenoxy-phenyl)-3-(4-trifluoromethyl-phenyl)-urea] | 178 to 181 °C | 96% | 
18 | O=C(Nc1cccc(OCCCN2CCOCC2)c1)Nc1c(F)cc(F)cc1F [Compound 6, 1-[3-(3-Morpholin-4-yl-propoxy)-phenyl]-3-(2,4,6-trifluoro-phenyl)-urea] |  |  | % Inh ([1]; inhibitor conc. 50000 nM): 92%
19 | CC(C)(C)CC(=O)Nc1cccc(OCCCN2CCOCC2)c1 [Compound 44, 3,3-Dimethyl-N-[3-(3-morpholin-4-yl-propoxy)-phenyl]-butyramide] |  |  | % Inh ([1]; inhibitor conc. 5000 nM): 70%
20 | O=C(Nc1cccnc1)Nc1cccc(OCCCN2CCOCC2)c1 [Compound 16, 1-[3-(3-Morpholin-4-yl-propoxy)-phenyl]-3-pyridin-3-yl-urea] |  |  | % Inh ([1]; inhibitor conc. 50000 nM): 95%
21 | O=C(Nc1ccc(Oc2ccc(C(=O)O)cc2)cc1)Nc1ccc(C(F)(F)F)cc1 [Compound 66, 4-(4-(3-(4-(trifluoromethyl)phenyl)ureido)phenoxy)benzoic acid] | > 400 °C |  | % Inh ([1]; inhibitor conc. 2000 nM): 100%
22 | O=C(Cc1ccc(C(F)(F)F)cc1)Nc1cccc(OCCCN2CCOCC2)c1 [Compound 24, N-[3-(3-Morpholin-4-yl-propoxy)-phenyl]-2-(4-trifluoromethyl-phenyl)-acetamide] |  |  | % Inh ([1]; inhibitor conc. 500 nM): 88%
23 | O=C(Nc1cccc(Oc2cccc(C(=O)O)c2)c1)NC12CC3CC(CC(C3)C1)C2 [Compound 70, 3-(3-(3-(adamantyl)ureido)phenoxy)benzoicacid] |  |  | % Inh ([1]; inhibitor conc. 2000 nM): 95%
24 | O=C(Nc1ccc(Oc2ccc(C(=O)O)cc2)cc1)Nc1ccc(OC(F)(F)F)cc1 [Compound 64, 4-(4-(3-(4-(trifluoromethoxy)phenyl)ureido)phenoxy)benzoic acid] |  |  | % Inh ([1]; inhibitor conc. 2000 nM): 100%
25 | O=C(CC12CC3CC(CC(C3)C1)C2)NC1CCC(OCCCN2CCOCC2)CC1 (stereo not shown) [Compound 50, 2-Adamantan-1-yl-N-[4-(3-morpholin-4-yl-propoxy)-cyclohexyl]-acetamide] |  |  | % Inh ([1]; inhibitor conc. 500 nM): 85%
26 | O=C(Cc1ccc(Cl)cc1)Nc1cccc(OCCCN2CCOCC2)c1 [Compound 22, 2-(4-Chloro-phenyl)-N-[3-(3-morpholin-4-yl-propoxy)-phenyl]-acetamide] |  |  | % Inh ([1]; inhibitor conc. 500 nM): 73%
27 | O=C(Nc1cccc(OCCCN2CCOCC2)c1)C12CC3CC(CC(C3)C1)C2 [Compound 55, Adamantane-1-carboxylicacid [3-(3-morpholin-4-yl-propoxy)-phenyl]-amide] |  |  | % Inh ([1]; inhibitor conc. 5000 nM): 90%
28 | O=C(CC12CC3CC(CC(C3)C1)C2)Nc1ccc(F)c(OCCCN2CCOCC2)c1 [Compound 52, 2-Adamantan-1-yl-N-[4-fluoro-3-(3-morpholin-4-yl-propoxy)-phenyl]-acetamide] |  |  | % Inh ([1]; inhibitor conc. 500 nM): 93%
29 | O=C(NCCc1ccc(OCc2ccccc2)cc1)NCC12CC3CC(CC(C3)C1)C2 [Compound 73, 1-(4-(benzyloxy)phenethyl)-3-(adamantylmethyl)urea] |  |  | % Inh ([1]; inhibitor conc. 200 nM): 97%
30 | O=C(Nc1ccc(F)cc1)Nc1cccc(OCc2ccccc2)c1 [Compound 38, 1-(3-Benzyloxy-phenyl)-3-(4-fluoro-phenyl)-urea] | 187 to 189 °C | 93% | 
31 | O=C(Nc1ccccc1)Nc1cccc(OCCCN2CCOCC2)c1 [Compound 1, 1-[3-(3-Morpholin-4-yl-propoxy)-phenyl]-3-phenyl-urea] |  |  | % Inh ([1]; inhibitor conc. 500 nM): 62%
